Test results as given in patent US7528252B2, “Derivatives of triazoly-imidazopyridine useful as ligands of the adenosine A2a receptor and their use as medicaments” (Sigma-Tau Industrie Farmaceutiche Riunite S.p.A., priority 2002, dated 2009).
Where two headings read alike, the source gives them in different places.

Assays:
human A2b receptor = biological target: T1, human A2b receptor (Homo sapiens, UniProt P29275); test: Affinity towards the adenosine A2b receptor ([3H]-DPCPX binding, HEK 293 membranes); settings: read-out: A2b Ki (nM) ± sd
T1 construct: expressed in transfected cells; host or cells: HEK 293
T1 sequence (P29275 1-332): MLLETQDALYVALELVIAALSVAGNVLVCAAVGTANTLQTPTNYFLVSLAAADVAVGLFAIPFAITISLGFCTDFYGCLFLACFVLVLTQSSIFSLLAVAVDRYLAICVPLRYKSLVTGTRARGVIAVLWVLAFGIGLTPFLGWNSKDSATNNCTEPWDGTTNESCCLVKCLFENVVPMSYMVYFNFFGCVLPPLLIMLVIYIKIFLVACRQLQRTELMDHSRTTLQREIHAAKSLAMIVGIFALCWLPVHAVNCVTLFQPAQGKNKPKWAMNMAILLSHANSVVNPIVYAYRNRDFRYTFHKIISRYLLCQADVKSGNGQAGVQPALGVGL
Method: The interactive capacity of each product towards the adenosine A2b receptor was evaluated using membranes from HEK 293 cells stably expressing the human A2b receptor subtype exclusively.
Non-specific binding was measured in the presence of NECA (50 μM).
In binding studies for each compound, eight different concentrations (from 10^−5 M to 10^−12 M) were evaluated in order to obtain competition curves. By means of non-linear regression analysis of the competition curves, the IC50 values, which express the binding affinity of each product, were determined. Using the Cheng Prusoff equation (Ki=IC50/1+(L/Kd)) Ki values were calculated through which the affinity of each product studied, for the receptor investigated, is expressed.

NMDA = test: Receptor binding study, NMDA; settings: reference compound
CD1 male mice [1] = test: Effects on spontaneous motor activity in mice; format: in vivo; settings: for Horizontal activity / Total distance / Vertical activity: mean ± s.e.
Method: For this study, type CD1 male mice (n=8) were used. The effects of the products under study and of the reference compounds were evaluated using an apparatus consisting of a Plexiglas cage (40 cm×40 cm) surrounded by a series of photocells which monitor the movements of the animals placed inside, connected a computerised system, through which, the signals are collected and later elaborated.
Tests were carried out, after endoperitoneal administration of the products. 15 minutes after treatment, the treated animals, alternating with the controls, were placed inside the cage so as to record their spontaneous movements over a total period of 45 minutes broken down into two observation intervals (15′-45′ and 45′-60′, with respect to the time after treatment).
To examine the possible effects of the compounds studied on motor activity, the following parameters were considered: horizontal activity, vertical activity: total distance.
Except for CGS 21680 (reference compound, described in EP 0 277 917, Ciba-Geigy) which was dissolved in 0.9% NaCl, the products studied were solubilised in DMSO and then diluted in Cremofor EL and 0.9% NaCl (final concentrations: DMSO 15%, Cremofor EL 15%, NaCl 0.9%.

M5 = biological target: T2, M5 (Homo sapiens, UniProt P08912); test: Receptor binding study, M5; settings: reference compound
T2 sequence (P08912 1-532): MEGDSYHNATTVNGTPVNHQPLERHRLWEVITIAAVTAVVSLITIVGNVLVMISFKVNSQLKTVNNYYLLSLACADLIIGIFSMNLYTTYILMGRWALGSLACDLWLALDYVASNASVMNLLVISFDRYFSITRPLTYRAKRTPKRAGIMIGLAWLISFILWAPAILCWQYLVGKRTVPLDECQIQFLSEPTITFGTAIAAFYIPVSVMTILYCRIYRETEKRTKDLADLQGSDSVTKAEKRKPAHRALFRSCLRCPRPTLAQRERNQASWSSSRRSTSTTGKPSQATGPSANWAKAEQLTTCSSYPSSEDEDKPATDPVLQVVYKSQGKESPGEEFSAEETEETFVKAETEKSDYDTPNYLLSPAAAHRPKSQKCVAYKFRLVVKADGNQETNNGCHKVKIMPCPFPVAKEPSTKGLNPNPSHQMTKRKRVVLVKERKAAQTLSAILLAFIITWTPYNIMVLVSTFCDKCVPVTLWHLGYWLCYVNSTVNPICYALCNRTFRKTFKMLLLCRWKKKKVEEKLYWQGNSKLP

Cholinetransporter = biological target: T3, Cholinetransporter (Homo sapiens, UniProt Q9GZV3); test: Receptor binding study, Choline transporter; settings: reference compound
T3 sequence (Q9GZV3 1-580): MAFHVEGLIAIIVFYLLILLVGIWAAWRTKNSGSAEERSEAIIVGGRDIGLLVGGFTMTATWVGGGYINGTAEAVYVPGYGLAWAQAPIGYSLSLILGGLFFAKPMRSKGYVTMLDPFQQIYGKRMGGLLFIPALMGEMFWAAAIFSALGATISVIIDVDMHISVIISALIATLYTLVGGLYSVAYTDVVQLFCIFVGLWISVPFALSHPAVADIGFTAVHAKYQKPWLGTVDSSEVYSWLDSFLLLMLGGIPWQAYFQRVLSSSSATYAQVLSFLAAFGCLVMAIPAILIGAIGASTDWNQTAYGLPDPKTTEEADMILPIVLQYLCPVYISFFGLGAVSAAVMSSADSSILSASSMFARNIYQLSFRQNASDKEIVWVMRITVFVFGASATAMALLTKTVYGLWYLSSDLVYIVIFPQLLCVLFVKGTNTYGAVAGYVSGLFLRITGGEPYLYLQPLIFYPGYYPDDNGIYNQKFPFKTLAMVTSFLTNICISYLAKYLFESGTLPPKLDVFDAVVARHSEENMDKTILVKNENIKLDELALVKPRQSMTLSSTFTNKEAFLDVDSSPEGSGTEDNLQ

PCP = test: Receptor binding study, PCP; settings: reference compound
ADOtransporter = test: Receptor binding study, ADO transporter; settings: reference compound
human A2a receptor [2] = biological target: T4, human A2a receptor (Homo sapiens, UniProt P29274); settings: for KiA1/KiA2a: ratio of receptor affinity (selectivity); for Ki: read-out: A2a Ki (nM) ± sd, human A2a, HEK 293 membranes, [3H]-CGS21680
[3] = biological target: T5, human A1 subtype adenosine receptor (Homo sapiens, UniProt P30542); test: Affinity towards the adenosine A1 receptor ([3H]-DPCPX binding, CHO-K1 membranes); settings: read-out: A1 Ki (nM) ± sd
T5 construct: expressed in transfected cells; host or cells: CHO-K1
T5 sequence (P30542 1-326): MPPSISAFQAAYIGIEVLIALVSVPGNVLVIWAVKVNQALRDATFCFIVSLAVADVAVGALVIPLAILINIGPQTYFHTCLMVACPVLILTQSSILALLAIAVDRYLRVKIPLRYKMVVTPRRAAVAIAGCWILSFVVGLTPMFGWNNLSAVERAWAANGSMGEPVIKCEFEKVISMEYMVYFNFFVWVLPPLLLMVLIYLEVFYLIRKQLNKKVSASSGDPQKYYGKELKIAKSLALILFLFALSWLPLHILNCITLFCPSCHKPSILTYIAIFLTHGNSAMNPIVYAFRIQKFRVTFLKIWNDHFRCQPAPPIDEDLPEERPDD

CD1 male mice [4] = test: Capacity of the products to induce catalepsy in mice; format: in vivo; settings: endoperitoneal, 30 minutes prior to the test
Method: 10 CD1 male mice were used per group. For this test, a steel bar, 10 cm long, was placed at a height of 4.5 cm above the support surface. Onto this, were placed the front legs of the animals. The presence of catalepsy was determined by measuring the time (in seconds) the animal remained in the posture placed. Later, this parameter was placed relatively, on a scale of rising values (0 to 5) through which, the degree of catalepsy determined in both control animals and in these subjected to treatment with the substances under test could be proportionately expressed.
The reference products and these in this study were administered endoperitoneally, in a volume of 10 ml/kg, 30 minutes prior to the test.
Except for CGS 21680 (reference compound) which was dissolved in 0.9% NaCl, the products in the study and the control antagonist ZM 241385 were solubilised in DMSO and then diluted in Cremofor EL and 0.9% NaCl (final concentrations: DMSO 15%, Cremofor EL 15%, NaCl 0.9%).

human A2a receptor [5] = biological target: T4, human A2a receptor; test: biochemical
P2Y = test: Receptor binding study, P2Y; settings: reference compound
mice = test: Forced swim test in mice; format: in vivo; settings: 60 minutes before the test; 4 minutes of testing period
Method: Mice were dropped individually into glass cylinders (height: 25 cm, internal diameter 10 cm) containing 10 cm water, maintained at 23° C. The immobility time (sec) was measured during 4 minutes of test. A mouse was judged to be immobile when it remained floating in the water, making only the necessary movements to keep its head above water. Test compound ST 1535 was administered orally to mice, 60 minutes before the test.

GABAa = test: Receptor binding study, GABAa; settings: reference compound
P2X = test: Receptor binding study, P2X; settings: reference compound
[6] = 0.5 mg/kg endoperitoneal, interval 15′-45′ from treatment
[7] = 0.5 mg/kg endoperitoneal, interval 45′-60′ from treatment
[8] = 2.5 mg/kg endoperitoneal, interval 15′-45′ from treatment
[9] = 2.5 mg/kg endoperitoneal, interval 45′-60′ from treatment
[10] = 5 mg/kg endoperitoneal, interval 15′-45′ from treatment
[11] = 5 mg/kg endoperitoneal, interval 45′-60′ from treatment
[12] = 10 mg/kg endoperitoneal, interval 15′-45′ from treatment
[13] = 10 mg/kg endoperitoneal, interval 45′-60′ from treatment

T4 sequence (P29274 whole entry): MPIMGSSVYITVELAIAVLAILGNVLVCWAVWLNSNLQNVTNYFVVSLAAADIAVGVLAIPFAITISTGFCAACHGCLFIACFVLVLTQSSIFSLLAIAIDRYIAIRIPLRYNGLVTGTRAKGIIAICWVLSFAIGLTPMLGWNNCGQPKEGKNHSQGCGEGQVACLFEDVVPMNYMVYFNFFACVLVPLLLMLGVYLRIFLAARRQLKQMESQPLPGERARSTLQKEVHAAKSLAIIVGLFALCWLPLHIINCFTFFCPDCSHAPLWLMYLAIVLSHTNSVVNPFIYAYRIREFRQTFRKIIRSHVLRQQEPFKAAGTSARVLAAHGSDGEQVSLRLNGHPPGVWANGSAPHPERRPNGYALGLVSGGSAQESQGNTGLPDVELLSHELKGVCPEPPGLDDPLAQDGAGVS

## O=c1nc2[nH]c3ccccc3nc-2c(=O)[nH]1 [Alloxazine, reference compound]
Human A2b receptor
  Ki: 3.8 ± 2.1 nM

## O=C(O)[C@@H]1C[C@H](CP(=O)(O)O)CCN1 [CGS 19755, reference compound]
NMDA
  IC50: 967 nM

## CCNC(=O)[C@H]1O[C@@H](n2cnc3c(N)nc(NCCc4ccc(CCC(=O)O)cc4)nc32)[C@H](O)[C@@H]1O [CGS 21680, reference compound]
CD1 male mice [1]; [6]
  Horizontal activity: 1608 ± 328
  Total distance: 504 ± 106
  Vertical activity: 27 ± 11
CD1 male mice [1]; [7]
  Horizontal activity: 471 ± 254
  Total distance: 121 ± 73
  Vertical activity: 10 ± 1

## C[N+]1(C)CCC(OC(=O)C(c2ccccc2)c2ccccc2)CC1 [Compound 4-DAMP, reference compound]
M5
  IC50: 2 nM

## C[N+]1(C)CCOC(O)(c2ccc(-c3ccc(C4(O)C[N+](C)(C)CCO4)cc3)cc2)C1 (stereo not drawn) [Hemicholinium-3, reference compound]
Cholinetransporter
  IC50: 12 nM

## C[C@]12N[C@H](Cc3ccccc31)c1ccccc12 [MK-801, reference compound]
PCP
  IC50: 2 nM

## O=[N+]([O-])c1ccc(CSc2ncnc3c2ncn3[C@@H]2O[C@H](CO)[C@@H](O)[C@H]2O)cc1 [NBTI, reference compound]
ADOtransporter
  IC50: 0.3 nM

## Cn1c(-n2nccn2)nc2c(N)ncnc21 [ST 1490, 6-amino-9-methyl-8-(triazol-2-yl)-9(H)-purine]
Human A2a receptor [2]
  KiA1/KiA2a: 0.009
  Ki: 46 nM
[3]
  Ki: 0.43 nM

## Cc1nc(N)c2nc(-n3nccn3)n(C)c2n1 [ST 1491, 6-amino-2,9-dimethyl-8-(triazol-2-yl)-9(H)-purine]
Human A2a receptor [2]
  KiA1/KiA2a: 0.15
  Ki: 70 ± 15 nM
[3]
  Ki: 10 ± 1.4 nM

## Cn1c(-n2nccn2)nc2c(N)nc(CCc3ccccc3)nc21 [ST 1537, 9-methyl-2-(2-phenylethyl)-8-(2H-1,2,3-triazol-2-yl)-9H-purine-6-ylamine]
[3]
  Ki: 80 ± 13 nM
Human A2b receptor
  Ki: 2330 ± 588 nM
CD1 male mice [4]
  appearance of catalepsy in mice (FIG. 1): none of them brought about the appearance of catalepsy in mice
CD1 male mice [1]; [8]
  Horizontal activity: 7494 ± 565
  Total distance: 1676 ± 204
  Vertical activity: 590 ± 78
CD1 male mice [1]; [9]
  Horizontal activity: 3133 ± 250
  Total distance: 677 ± 105
  Vertical activity: 210 ± 17
CD1 male mice [1]; [10]
  Horizontal activity: 7203 ± 264
  Total distance: 1503 ± 116
  Vertical activity: 498 ± 77
CD1 male mice [1]; [11]
  Horizontal activity: 2844 ± 299
  Total distance: 532 ± 95
  Vertical activity: 363 ± 91
CD1 male mice [1]; [12]
  Horizontal activity: 8242 ± 847
  Total distance: 2707 ± 950
  Vertical activity: 528 ± 126
CD1 male mice [1]; [13]
  Horizontal activity: 3874 ± 295
  Total distance: 843 ± 149
  Vertical activity: 276 ± 57
CD1 male mice [1]; independently of the dosage administered (2.5-10 mg/kg)
  effect on motor activity in mice (in words): induces a clear increase in motor activity

## Cn1c(-n2nccn2)nc2c(N)nccc21 [ST 1680, 4-amino-1-methyl-2-(triazol-2-yl)-1(H)-imidazo[4,5-c]pyridino triflate]
Human A2a receptor [2]
  KiA1/KiA2a: 16
[3]
  Ki: 1560 ± 252 nM
Human A2b receptor
  Ki: 926 ± 55 nM
Human A2a receptor [5]
  Ki: 97 ± 23 nM

## Nc1ncnc2c1ncn2[C@H]1C[C@H](O)[C@@H](COP(O)(=S)OP(=O)(O)OP(=O)(O)O)O1 (stereo partly drawn) [dATPα S, reference compound]
P2Y
  IC50: 22 nM

## CN(C)CCCN1c2ccccc2CCc2ccccc21 [imipramine, reference compound]
mice
  time of immobility, forced swim test (FIG. 5): in a manner similar to that observed for the antidepressive drug Imipramine

## NCc1cc(=O)[nH]o1 [muscimol, reference compound]
GABAa
  IC50: 16 nM

## Nc1ncnc2c1ncn2[C@@H]1O[C@H](COP(=O)(O)CP(=O)(O)OP(=O)(O)O)[C@@H](O)[C@H]1O [α,β-MeATP, reference compound]
P2X
  IC50: 14 nM
